Measured values as given in patent US9422285B2, “Substituted pyrazolo[1,5-A]-pyridine-3-carboxamides and use thereof” (Bayer Pharma Aktiengesellschaft, priority 2014, dated 2016).
Where a name gives a salt, the structure may show the parent alone.

Biological target: T1, recombinant guanylate cyclase reporter cell line (Rattus norvegicus, UniProt P19686+P20595)
T1 construct: expressed in transfected cells
T1 sequence (P19686 1-690): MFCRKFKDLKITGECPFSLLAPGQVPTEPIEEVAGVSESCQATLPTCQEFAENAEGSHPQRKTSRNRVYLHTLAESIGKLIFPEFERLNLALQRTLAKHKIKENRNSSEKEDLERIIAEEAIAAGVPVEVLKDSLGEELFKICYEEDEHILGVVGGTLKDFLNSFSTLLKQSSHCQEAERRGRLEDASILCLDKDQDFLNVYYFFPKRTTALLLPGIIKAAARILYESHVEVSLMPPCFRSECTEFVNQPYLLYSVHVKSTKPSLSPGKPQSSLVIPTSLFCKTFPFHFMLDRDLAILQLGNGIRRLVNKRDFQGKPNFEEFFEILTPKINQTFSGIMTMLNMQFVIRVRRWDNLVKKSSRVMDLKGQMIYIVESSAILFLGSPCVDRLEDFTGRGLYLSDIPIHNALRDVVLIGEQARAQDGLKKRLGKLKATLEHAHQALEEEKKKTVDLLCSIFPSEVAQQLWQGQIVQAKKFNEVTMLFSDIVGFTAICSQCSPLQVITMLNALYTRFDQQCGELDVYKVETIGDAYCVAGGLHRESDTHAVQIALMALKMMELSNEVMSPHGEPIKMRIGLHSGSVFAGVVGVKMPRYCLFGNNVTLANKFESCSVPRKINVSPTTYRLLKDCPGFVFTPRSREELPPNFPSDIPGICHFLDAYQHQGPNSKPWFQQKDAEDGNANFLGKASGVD
T1 sequence (P20595 1-619): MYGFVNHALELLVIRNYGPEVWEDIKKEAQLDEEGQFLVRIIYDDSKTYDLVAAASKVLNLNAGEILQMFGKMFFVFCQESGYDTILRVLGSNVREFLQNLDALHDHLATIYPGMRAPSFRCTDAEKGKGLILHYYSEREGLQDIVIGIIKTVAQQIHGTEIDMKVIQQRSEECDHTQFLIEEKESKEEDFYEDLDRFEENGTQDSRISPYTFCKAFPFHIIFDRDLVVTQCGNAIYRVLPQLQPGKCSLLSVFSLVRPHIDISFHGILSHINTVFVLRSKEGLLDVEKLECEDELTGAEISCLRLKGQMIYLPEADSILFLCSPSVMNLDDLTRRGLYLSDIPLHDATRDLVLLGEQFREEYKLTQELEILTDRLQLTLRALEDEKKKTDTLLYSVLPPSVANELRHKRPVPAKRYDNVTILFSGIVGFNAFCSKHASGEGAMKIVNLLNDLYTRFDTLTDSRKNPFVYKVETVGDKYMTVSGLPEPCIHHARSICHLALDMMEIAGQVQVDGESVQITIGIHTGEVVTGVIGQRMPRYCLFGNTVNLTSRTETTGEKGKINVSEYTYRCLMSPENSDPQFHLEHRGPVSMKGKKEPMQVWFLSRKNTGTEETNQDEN
Assay: Effect on a recombinant guanylate cyclase reporter cell line (B-2)
Format: cell-based
Conditions: in some cases mean values for individual determinations
Experimental: B-2. Effect on a Recombinant Guanylate Cyclase Reporter Cell Line
The cellular effect of the inventive compounds is determined using a recombinant guanylate cyclase reporter cell line, as described in F. Wunder et al., Anal. Biochem. 339, 104-112 (2005).
Representative MEC values (MEC=minimum effective concentration) for the inventive compounds are shown in the table below (in some cases as mean values for individual determinations): […]

Structure (SMILES) | MEC (minimum effective concentration) [µM]
Cc1cc(OCc2c(F)cccc2F)n2nc(C)c(C(=O)NCC(C)(N)CF)c2c1 (single isomer, unassigned) [Example 40, ent-N-(2-Amino-3-fluoro-2-methylpropyl)-7-[(2,6-difluorobenzyl)oxy]-2,5-dimethylpyrazolo[1,5-a]pyridine-3-carboxamide] | 1.0
COc1ccc(CC(C)(N)CNC(=O)c2c(C)nn3c(OCc4c(F)cccc4F)cc(C)cc23)cc1 (racemic) [Example 99, rac-N-[2-Amino-3-(4-methoxyphenyl)-2-methylpropyl]-7-[(2,6-difluorobenzyl)oxy]-2,5-dimethylpyrazolo[1,5-a]pyridine-3-carboxamide] | 0.1
Cc1cc(OCc2c(F)cccc2F)n2nc(C)c(C(=O)N[C@@H](CO)c3cccs3)c2c1 [Example 176, 7-[(2,6-Difluorobenzyl)oxy]-N-[(1S)-2-hydroxy-1-(2-thienyl)ethyl]-2,5-dimethylpyrazolo[1,5-a]pyridine-3-carboxamide] | 0.3
Cc1cc(OCc2c(F)cccc2F)n2nc(C)c(C(=O)N[C@H](CO)c3ccc(C)o3)c2c1 [Example 178, 7-[(2,6-Difluorobenzyl)oxy]-N-[(1R)-2-hydroxy-1-(5-methyl-2-furyl)ethyl]-2,5-dimethylpyrazolo[1,5-a]pyridine-3-carboxamide] | 1.0
Cc1cc(OCc2c(F)cccc2F)n2nc(C)c(C(=O)NC34CCC(C(=O)O)(CC3)CC4)c2c1 [Example 153, 4-[({7-[(2,6-Difluorobenzyl)oxy]-2,5-dimethylpyrazolo[1,5-a]pyridin-3-yl}carbonyl)amino]bicyclo[2.2.2]octane-1-carboxylic Acid] | 3.0
Cc1cc(OCc2c(F)cccc2F)n2nc(C)c(C(=O)NCCCCCC#N)c2c1 [Example 63, N-(5-Cyanopentyl)-7-[(2,6-difluorobenzyl)oxy]-2,5-dimethylpyrazolo[1,5-a]pyridine-3-carboxamide] | 1.0
Cc1cc(OCc2c(F)cccc2F)n2nc(C)c(C(=O)NC3CCC(C)(C)c4ccccc43)c2c1 (racemic) [Example 145, rac-7-[(2,6-Difluorobenzyl)oxy]-N-(4,4-dimethyl-1,2,3,4-tetrahydronaphthalen-1-yl)-2,5-dimethylpyrazolo[1,5-a]pyridine-3-carboxamide] | 1.0
Cc1cc(OCc2c(F)cccc2F)n2nc(C)c(C(=O)NCC(F)(F)CN)c2c1 [Example 81, N-(3-Amino-2,2-difluoropropyl)-7-[(2,6-difluorobenzyl)oxy]-2,5-dimethylpyrazolo[1,5-a]pyridine-3-carboxamide] | 1.0
Cc1cc(OCc2c(F)ccc(F)c2F)n2nc(C)c(C(=O)NCCN(C)C)c2c1 [Example 12, N-[2-(Dimethylamino)ethyl]-2,5-dimethyl-7-[(2,3,6-trifluorobenzyl)oxy]pyrazolo[1,5-a]pyridine-3-carboxamide] | 3.0
Cc1cc(OCc2c(F)ccc(F)c2F)n2nc(C)c(C(=O)N[C@@H](CO)C(=O)Nc3ccc4ccccc4c3)c2c1 [Example 7, N-[(2S)-3-Hydroxy-1-(2-naphthylamino)-1-oxopropan-2-yl]-2,5-dimethyl-7-[(2,3,6-trifluorobenzyl)oxy]pyrazolo[1,5-a]pyridine-3-carboxamide] | 1.0
Cc1cc(OCc2c(F)cccc2F)n2nc(C)c(C(=O)NC3CC(C)Nc4ccc(C(F)(F)F)nc43)c2c1 (single isomer, unassigned; ent-7) [Example 86, ent-7-[(2,6-Difluorobenzyl)oxy]-2,5-dimethyl-N-[2-methyl-6-(trifluoromethyl)-1,2,3,4-tetrahydro-1,5-naphthyridin-4-yl]pyrazolo[1,5-a]pyridine-3-carboxamide] | 3.0
Cc1cc(OCc2c(F)cccc2F)n2nc(C)c(C(=O)NC3CCN(C)c4ccccc43)c2c1 (racemic) [Example 75, rac-7-[(2,6-Difluorobenzyl)oxy]-2,5-dimethyl-N-(1-methyl-1,2,3,4-tetrahydroquinolin-4-yl)pyrazolo a]pyridine-3-carboxamide trifluoroacetate] | 0.03
CCCC(C)(N)CNC(=O)c1cnn2c(OCc3c(F)cccc3F)cc(C)cc12 (single isomer, unassigned) [Example 53, ent-N-(2-Amino-2-methylpentyl)-7-[(2,6-difluorobenzyl)oxy]-5-methylpyrazolo[1,5-a]pyridine-3-carboxamide] | 3.0
Cc1cc(OCc2c(F)cccc2F)n2nc(C)c(C(=O)N[C@H]3C[C@H]4CN(C)CCN4C3)c2c1 [Example 113, 7-[(2,6-Difluorobenzyl)oxy]-2,5-dimethyl-N-[(7S,8aS)-2-methyloctahydropyrrolo[1,2-a]pyrazin-7-yl]pyrazolo[1,5-a]pyridine-3-carboxamide] | 3.0
CCCC(C)(N)CNC(=O)c1c(C)nn2c(OCc3c(F)cccc3F)cccc12 (racemic) [Example 163, rac-N-(2-Amino-2-methylpentyl)-7-[(2,6-difluorobenzyl)oxy]-2-methylpyrazolo[1,5-a]pyridine-3-carboxamide] | 3.0
CCCC(C)(N)CNC(=O)c1c(C)nn2c(OCc3c(F)cccc3F)cc(C3CC3)cc12 (racemic) [Example 167, rac-N-(2-Amino-2-methylpentyl)-5-cyclopropyl-7-[(2,6-difluorobenzyl)oxy]-2-methylpyrazolo[1,5-a]pyridine-3-carboxamide] | 3.0
CCC(CO)(CO)NC(=O)c1c(C)nn2c(OCc3c(F)ccc(F)c3F)cc(C)cc12 [Example 28, N-[1-Hydroxy-2-(hydroxymethyl)butan-2-yl]-2,5-dimethyl-7-[(2,3,6-trifluorobenzyl)oxy]pyrazolo[1,5-a]pyridine-3-carboxamide] | 1.0
Cc1cc(OCc2c(F)ccc(F)c2F)n2nc(C)c(C(=O)NC(C#N)c3ccc(Cl)cc3)c2c1 (stereo not shown) [Example 34, N-[(4-Chlorophenyl)(cyano)methyl]-2,5-dimethyl-7-[(2,3,6-trifluorobenzyl)oxy]pyrazolo[1,5-a]pyridine-3-carboxamide] | 1.0
Cc1cc(OCc2c(F)cccc2F)n2nc(C)c(C(=O)NN3CCN(C)CC3)c2c1 [Example 173, 7-[(2,6-Difluorobenzyl)oxy]-2,5-dimethyl-N-(4-methylpiperazin-1-yl)pyrazolo[1,5-a]pyridine-3-carboxamide] | 1.0
CCCC(C)(N)CNC(=O)c1c(C)nn2c(OCc3ncccc3F)cc(C)cc12 (racemic) [Example 166, rac-N-(2-Amino-2-methylpentyl)-7-[(3-fluoropyridin-2-yl)methoxy]-2,5-dimethylpyrazolo[1,5-a]pyridine-3-carboxamide] | 10
Cc1cc(OCc2c(F)cccc2F)n2nc(C)c(C(=O)NCC(C)(N)CCCF)c2c1 (single isomer, unassigned) [Example 45, ent-N-(2-Amino-5-fluoro-2-methylpentyl)-7-[(2,6-difluorobenzyl)oxy]-2,5-dimethylpyrazolo[1,5-a]pyridine-3-carboxamide] | 0.3
Cc1cc(OCc2c(F)cccc2F)n2nc(C)c(C(=O)NCC3CSCCN3)c2c1 (racemic) [Example 88, rac-7-[(2,6-Difluorobenzyl)oxy]-2,5-dimethyl-N-(thiomorpholin-3-ylmethyl)pyrazolo[1,5-a]pyridine-3-carboxamide] | 1.0
